Data published in paper PMC3820577, “A High-Throughput Screen against Pantothenate Synthetase (PanC) Identifies 3-Biphenyl-4-Cyanopyrrole-2-Carboxylic Acids as a New Class of Inhibitor with Activity against Mycobacterium tuberculosis” (PLoS ONE, 2013).
≈ marks a conversion by molar mass, not a printed value. Counter-ions that a name gives are not always drawn. Like-named read-outs stand apart in the source and are kept apart here.

Columns and labels:
PanCMTB [1] = target: T1, PanCMTB (Mycobacterium tuberculosis, UniProt P9WIL5); test: Low-throughput kinetic NADH depletion assay for PanCMTB, mode of inhibition; type: biochemical; details: for mode of inhibition / Ki: with respect to pantoate; for Ki: read-out: Ki inhibition constant; for α (parameter of mixed inhibition equation): with respect to the substrate pantoate
T1 construct: 6X-Histidine (N); made in house; host or cells: E. coli BL21(ΔE3), vector pET28b+

PanCMTB [2] = target: T1, PanCMTB; test: High-throughput single-timepoint fluorescence assay for PanCMTB activity (HTS and CRC); type: biochemical; details: for inhibition of the reaction: control inhibitor
Experimental: The activity of recombinant PanCMTB was measured, as previously described. Briefly, compounds or carrier DMSO alone were incubated with PanCMTB, the coupling enzymes, and their reagents for five minutes. The reaction was then initiated by addition of the PanCMTB substrates, pantoate and β-alanine. The reaction was conducted in wells of a black clear-bottomed microplate containing a final volume of 40 µL per well. The final concentrations were 0.4 mM NADH, 10 mM ATP, 1 mM pantoate, 5 mM β-alanine, 1 mM phosphoenol pyruvate (PEP-K), 10 mM MgCl2, 2% DMSO, 1 µg/mL of PanC, and 18 U/mL each of myokinase, pyruvate kinase and lactate dehydrogenase in 100 mM HEPES pH 7.8. The plate was immediately transferred to a SpectraMax micro-plate reader and the rate of NADH depletion was monitored by measuring the absorbance at 340 nm every 20 s for a total of 20 min.
The kinetic NADH depletion assay was initiated as described above. After 30 minutes 10 µL of solution containing fluorescent reagents was added to each well. The final 50 µL reaction contained 12.5 U/mL of diaphorase and 5 mM resazurin. After thorough mixing, the plate was transferred to a micro-plate reader and the level of resulting NADH-dependent resorufin determined by measuring fluorescence (excitation and emission filters set at […], respectively).
HTS library sets of individual compounds were plated at 1 mM - diluted first into HEPES and finally into the assay for a final assay concentration (FAC) of 20 µM. For concentration response curves (CRCs), the compounds were plated in single wells at 10 mM and diluted 3-fold across 9 adjacent wells in a row. Serial dilutions were made in 100% DMSO to ensure accurate concentrations of compound across the series. This entire plate was then treated in the same format as the HTS library plates, for FACs ranging from 200 µM- 0.01 µM in 2% DMSO (details provided in Text S1 and shown in Figure S3).

PanC-TetONM strain = test: microbe, parasite or virus in culture; type: cell-based, Mycobacterium tuberculosis
[3] = test system: M. tuberculosis H37Rv (RvS); test: microbe, parasite or virus in culture; type: cell-based, Mycobacterium tuberculosis
Vero cells = type: cell-based; details: African green monkey, 48 h
Experimental: Cytotoxicity was measured against the African green monkey adult kidney cell line (Vero). Vero cells were plated at 25,000 cells/mL in black 96-well assay plates pre-populated with compound dilutions and controls. Cells were incubated in a humidified 5% CO2 environment at 37°C for 48 h; intracellular ATP levels were measured using CellTiter-Glo®Reagent (Promega, Madison, WI). Luminescence was measured using a Victor 2 plate reader and percentage inhibition of growth calculated. Results were expressed as toxicity concentration (TC50) = concentration of compound required to inhibit growth by 50%.

HeLa cells = type: cell-based; details: human
PanCMTB [4] = target: T1, PanCMTB; design: method as in PMID 17175524; details: read-out: inhibition constant; cited from earlier work
[5] = Mycobacterium tuberculosis, 144 h
[6] = Mycobacterium tuberculosis, H37RV, 144 h

T1 sequence (P9WIL5 whole entry, looked up): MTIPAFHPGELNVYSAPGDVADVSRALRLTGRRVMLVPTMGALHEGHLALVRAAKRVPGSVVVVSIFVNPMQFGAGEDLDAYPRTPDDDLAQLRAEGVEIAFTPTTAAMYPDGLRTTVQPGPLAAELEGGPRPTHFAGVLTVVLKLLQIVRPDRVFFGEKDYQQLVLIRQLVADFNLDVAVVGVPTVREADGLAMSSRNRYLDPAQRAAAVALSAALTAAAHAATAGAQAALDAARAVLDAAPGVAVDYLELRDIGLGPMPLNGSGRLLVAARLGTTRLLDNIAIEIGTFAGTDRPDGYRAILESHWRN

Compound | mode of inhibition (PanCMTB [1]) | Ki (PanCMTB [1]) [nM] | α (parameter of mixed inhibition equation) (PanCMTB [1]) | EC50 (PanCMTB [2]) [nM] | MIC50 (PanC-TetONM strain; Mycobacterium tuberculosis) [µM] | MIC50 (PanC-TetONM strain; [5]) [µM] | MIC50 [3] [µM] | MIC50 [3, 6] [µM] | TC50 (Vero cells) [µM] | average TC50 (HeLa cells) [µM] | MIC50 (PanC-TetONM strain) [µM] | inhibition of the reaction (PanCMTB [2]; higher of two control concentrations) [%] | inhibition of the reaction (PanCMTB [2]; lower of two control concentrations) [%] | Ki (PanCMTB [4]) [µM]
CCSc1c(C#N)c(-c2ccc(-c3ccccc3)cc2)c(C(=O)O)n1C [compound 1] | competitive inhibition | 174 | 128 | 1800 | 111 (≈ 40.2 µg/mL) | 69 (≈ 25 µg/mL) | 115 (≈ 41.7 µg/mL) | 115 (≈ 41.7 µg/mL) | 70 | 179 |  |  |  | 
CCc1c(C#N)c(-c2ccc(-c3ccc(C#N)cc3)cc2)c(C(=O)O)n1C [compound 2] | competitive inhibition | 297 | 78 | 4000 | 53 (≈ 18.8 µg/mL) | 24 (≈ 8.53 µg/mL) | 54 (≈ 19.2 µg/mL) | 54 (≈ 19.2 µg/mL) | 96 | 111 | 24 (≈ 8.53 µg/mL) |  |  | 
CCN(CC)CCOC(=O)C(Cc1cccc2ccccc12)CC1CCCO1 (stereo not drawn) [nafronyl oxalate, reference compound] |  |  |  |  |  |  |  |  |  |  |  | ~80 | ~50 | ~75
